Type in all cases: functional, cell-based
In one assay the test system is MGC-803. Put plainly: Antiproliferative activity against human MGC-803 cells assessed as inhibition of cell growth measured after 72 hrs by SRB assay. Particulars: MGC-803, 72 h. For orientation: Sulforhodamine B stains cellular protein and so reports cell mass.
The subject of the next assay is SW1990. In words: Antiproliferative activity against human SW1990 cells assessed as inhibition of cell growth measured after 72 hrs by SRB assay. The following applies: SW1990, 72 h.
The subject of the next assay is PC-3. In words: Antiproliferative activity against human PC-3 cells assessed as inhibition of cell growth measured after 72 hrs by SRB assay. The following applies: PC-3, 72 h.
For the next assay, the system named is TE-1. Put plainly: Antiproliferative activity against human TE-1 cells assessed as inhibition of cell growth measured after 72 hrs by SRB assay. The following applies: TE-1, 72 h.
For a further assay, the system named is HGC-27. Put plainly: Antiproliferative activity against human HGC-27 cells assessed as inhibition of cell growth measured after 72 hrs by SRB assay. The following applies: HGC-27, 72 h.

The structures appear in SMILES notation. A value given as a limit tells only on which side of the number the result lay.

A word on the IC50: it is the concentration that inhibits the measured activity by half.

For `[N-]=[N+]=NCCCCN1C(=O)c2cccc3c(N4CCCCC4)ccc(c23)C1=O`, the half-maximal inhibitory concentration (IC50) in the assay on MGC-803, with SW1990, in the assay with PC-3, in the assay with TE-1 and in the assay with HGC-27 was above 32 µM throughout.

For `[N-]=[N+]=NCCOCCN1C(=O)c2cccc3c(N4CCCCC4)ccc(c23)C1=O`, the IC50 with MGC-803, in the assay with SW1990, with PC-3, with TE-1 and with HGC-27 was above 32 µM in each case.

On to `C=C1C(=O)[C@]23[C@H](O)[C@H]1C[C@H](O)[C@H]2[C@]12CCCC(C)(C)[C@H]1C[C@H]3O[C@H]2OCCCCCCc1cn(CCN2C(=O)c3cccc4c(N5CCCCC5)ccc(c34)C2=O)nn1`, for which the 50% inhibitory concentration (IC50) was 3.25 µM in the assay on MGC-803; 2.88 µM with SW1990; 1.6 µM in the assay on PC-3; 4.66 µM with TE-1; 3.74 µM with HGC-27.

For the compound `C=C1C(=O)[C@]23[C@H](O)[C@H]1C[C@H](O)[C@H]2[C@]12CCCC(C)(C)[C@H]1C[C@H]3O[C@H]2OCCCc1cn(CCOCCN2C(=O)c3cccc4c(N5CCCCC5)ccc(c34)C2=O)nn1`, the IC50 was 3.83 µM in the assay on MGC-803; 2.39 µM in the assay with SW1990; 1.41 µM with PC-3; 2.26 µM in the assay on TE-1; 2.16 µM in the assay with HGC-27.

On to `C=C1C(=O)[C@]23[C@H](O)[C@H]1C[C@H](O)[C@H]2[C@]12CCCC(C)(C)[C@H]1C[C@H]3O[C@H]2OCCCCc1cn(CCCCCN2C(=O)c3cccc4c(N5CCCCC5)ccc(c34)C2=O)nn1`, for which the half-inhibitory concentration (IC50) came out at 3.07 µM in the assay with MGC-803; 2.69 µM in the assay with SW1990; 1.27 µM in the assay with PC-3; 6.38 µM in the assay with TE-1; 1.95 µM in the assay on HGC-27.

Take `C=C1C(=O)[C@]23[C@H](O)[C@H]1C[C@H](O)[C@H]2[C@]12CCCC(C)(C)[C@H]1C[C@H]3O[C@H]2OCCCCc1cn(CCOCCOCCOCCN2C(=O)c3cccc4c(N5CCCCC5)ccc(c34)C2=O)nn1`: the IC50 in the assay with MGC-803 came to 3.13 µM; in the assay on SW1990 it was 4.35 µM; with PC-3, 1.04 µM; with TE-1 it was 2.43 µM; in the assay with HGC-27, 2.49 µM.

On to `C=C1C(=O)[C@]23[C@H](O)[C@H]1C[C@H](O)[C@H]2[C@]12CCCC(C)(C)[C@H]1C[C@H]3O[C@H]2OCCCCc1cn(CCN2C(=O)c3cccc4c(N5CCCCC5)ccc(c34)C2=O)nn1`, for which the IC50 came out at 1.21 µM in the assay on MGC-803; 1.37 µM in the assay with SW1990; 1.44 µM with PC-3; 2.25 µM in the assay with TE-1; 6.23 µM in the assay with HGC-27.

On to `C=C1C(=O)[C@]23[C@H](O)[C@H]1C[C@H](O)[C@H]2[C@]12CCCC(C)(C)[C@H]1C[C@H]3O[C@H]2OCCCCCc1cn(CCCN2C(=O)c3cccc4c(N5CCCCC5)ccc(c34)C2=O)nn1`, for which the 50% inhibitory concentration (IC50) in the assay on MGC-803 came out at 2.43 µM; in the assay with SW1990, 3.65 µM; in the assay with PC-3 it was 2.49 µM; in the assay with TE-1, 4.62 µM; in the assay with HGC-27, 3.26 µM.

As to `C=C1C(=O)[C@]23[C@H](O)[C@H]1C[C@H](O)[C@H]2[C@]12CCCC(C)(C)[C@H]1C[C@H]3O[C@H]2OCCc1cn(CCOCCOCCOCCN2C(=O)c3cccc4c(N5CCCCC5)ccc(c34)C2=O)nn1`, the 50% inhibitory concentration (IC50) with MGC-803 was 2.65 µM; with SW1990, 1.56 µM; with PC-3, 0.93 µM; in the assay with TE-1, 1.87 µM; in the assay on HGC-27, 5.26 µM.

As for `C=C1C(=O)[C@]23[C@H](O)[C@H]1C[C@H](O)[C@H]2[C@]12CCCC(C)(C)[C@H]1C[C@H]3O[C@H]2OCCCCCc1cn(CCOCCN2C(=O)c3cccc4c(N5CCCCC5)ccc(c34)C2=O)nn1`, the concentration for half-maximal inhibition (IC50) came out at 2.78 µM in the assay with MGC-803; 3.36 µM in the assay on SW1990; 0.87 µM with PC-3; 2.37 µM in the assay on TE-1; 1.64 µM in the assay on HGC-27.

Turning to `C=C1C(=O)[C@]23[C@H](O)[C@H]1C[C@H](O)[C@H]2[C@]12CCCC(C)(C)[C@H]1C[C@H]3O[C@H]2OCCCCc1cn(CCCCCCN2C(=O)c3cccc4c(N5CCCCC5)ccc(c34)C2=O)nn1`, the concentration for half-maximal inhibition (IC50) came to 2.11 µM in the assay with MGC-803; 2.87 µM in the assay on SW1990; 2.2 µM in the assay with PC-3; 4.33 µM with TE-1; 2.09 µM in the assay with HGC-27.

With `C=C1C(=O)[C@]23[C@H](O)[C@H]1C[C@H](O)[C@H]2[C@]12CCCC(C)(C)[C@H]1C[C@H]3O[C@H]2OCCc1cn(CCCN2C(=O)c3cccc4c(N5CCCCC5)ccc(c34)C2=O)nn1`, the IC50 in the assay on MGC-803 was 1.97 µM; with SW1990, 0.97 µM; in the assay on PC-3, 0.8 µM; with TE-1 it was 3.04 µM; with HGC-27, 2.29 µM.

`C=C1C(=O)[C@]23[C@H](O)[C@H]1C[C@H](O)[C@H]2[C@]12CCCC(C)(C)[C@H]1C[C@H]3O[C@H]2OCCCCCCc1cn(CCOCCOCCOCCN2C(=O)c3cccc4c(N5CCCCC5)ccc(c34)C2=O)nn1`: the IC50 in the assay with MGC-803 was 3.87 µM; with SW1990 it was 2.64 µM; in the assay on PC-3, 1.27 µM; in the assay with TE-1, 3.08 µM; in the assay on HGC-27, 1.44 µM.

`C=C1C(=O)[C@]23[C@H](O)[C@H]1C[C@H](O)[C@H]2[C@]12CCCC(C)(C)[C@H]1C[C@H]3O[C@H]2OCCc1cn(CCOCCN2C(=O)c3cccc4c(N5CCCCC5)ccc(c34)C2=O)nn1`: the concentration for half-maximal inhibition (IC50) came to 2.13 µM in the assay with MGC-803; 1.18 µM in the assay with SW1990; 0.99 µM in the assay with PC-3; 1.31 µM in the assay on TE-1; 4.14 µM with HGC-27.

In the case of `C=C1C(=O)[C@]23[C@H](O)[C@H]1C[C@H](O)[C@H]2[C@]12CCCC(C)(C)[C@H]1C[C@H]3O[C@H]2OCCCCCc1cn(CCOCCOCCN2C(=O)c3cccc4c(N5CCCCC5)ccc(c34)C2=O)nn1`, the IC50 with MGC-803 came out at 2.64 µM; in the assay on SW1990, 2.15 µM; in the assay on PC-3 it was 1.21 µM; in the assay with TE-1, 1.86 µM; in the assay with HGC-27, 1.8 µM.

As for `[N-]=[N+]=NCCCCCCN1C(=O)c2cccc3c(N4CCCCC4)ccc(c23)C1=O`, the IC50 with MGC-803, in the assay with SW1990, in the assay on PC-3, with TE-1 and in the assay with HGC-27 was above 32 µM throughout.

As to `C=C1C(=O)[C@]23[C@H](O)[C@H]1C[C@H](O)[C@H]2[C@]12CCCC(C)(C)[C@H]1C[C@H]3O[C@H]2OCCCCCc1cn(CCCCCCN2C(=O)c3cccc4c(N5CCCCC5)ccc(c34)C2=O)nn1`, the 50% inhibitory concentration (IC50) in the assay on MGC-803 was found to be 5.88 µM; with SW1990 it was 5.02 µM; with PC-3, 0.99 µM; in the assay with TE-1, 10.1 µM; in the assay on HGC-27, 2.17 µM.

As for `C=C1C(=O)[C@]23[C@H](O)[C@H]1C[C@H](O)[C@H]2[C@]12CCCC(C)(C)[C@H]1C[C@H]3O[C@H]2OCCCCCc1cn(CCCCCN2C(=O)c3cccc4c(N5CCCCC5)ccc(c34)C2=O)nn1`, the IC50 in the assay on MGC-803 stood at 2.44 µM; in the assay with SW1990, 2.79 µM; in the assay on PC-3, 0.78 µM; in the assay on TE-1 it was 4.67 µM; in the assay on HGC-27 it was 1.67 µM.

For the compound `C=C1C(=O)[C@]23[C@H](O)[C@H]1C[C@H](O)[C@H]2[C@]12CCCC(C)(C)[C@H]1C[C@H]3O[C@H]2OCCCCCc1cn(CCCCN2C(=O)c3cccc4c(N5CCCCC5)ccc(c34)C2=O)nn1`, the IC50 with MGC-803 was 2.72 µM; with SW1990, 4.65 µM; in the assay on PC-3, 1.34 µM; in the assay with TE-1, 5.13 µM; in the assay on HGC-27, 3.01 µM.

Turning to `[N-]=[N+]=NCCN1C(=O)c2cccc3c(N4CCCCC4)ccc(c23)C1=O`, the 50% inhibitory concentration (IC50) in the assay with MGC-803, with SW1990, with PC-3, with TE-1 and in the assay on HGC-27 was above 32 µM throughout.

`C=C1C(=O)[C@]23[C@H](O)[C@H]1C[C@H](O)[C@H]2[C@]12CCCC(C)(C)[C@H]1C[C@H]3O[C@H]2OCCCCCCc1cn(CCCN2C(=O)c3cccc4c(N5CCCCC5)ccc(c34)C2=O)nn1`: the IC50 in the assay on MGC-803 was found to be 6.06 µM; in the assay on SW1990, 3.19 µM; in the assay on PC-3 it was 2.38 µM; in the assay on TE-1, 3.67 µM; in the assay with HGC-27, 2.48 µM.

As to `[N-]=[N+]=NCCOCCOCCOCCN1C(=O)c2cccc3c(N4CCCCC4)ccc(c23)C1=O`, the IC50 in the assay with MGC-803, with SW1990, in the assay with PC-3, with TE-1 and in the assay with HGC-27 was above 32 µM in each case.

As to `C=C1C(=O)[C@]23[C@H](O)[C@H]1C[C@H](O)[C@H]2[C@]12CCCC(C)(C)[C@H]1C[C@H]3O[C@H]2OCCCc1cn(CCCCCCN2C(=O)c3cccc4c(N5CCCCC5)ccc(c34)C2=O)nn1`, the half-maximal inhibitory concentration (IC50) in the assay with MGC-803 is 0.91 µM; in the assay on SW1990 it was 1.2 µM; in the assay on PC-3, 0.74 µM; with TE-1, 2.97 µM; with HGC-27, 3.32 µM.

On to `C=C1C(=O)[C@]23[C@H](O)[C@H]1C[C@H](O)[C@H]2[C@]12CCCC(C)(C)[C@H]1C[C@H]3O[C@H]2OCCc1cn(CCCCCN2C(=O)c3cccc4c(N5CCCCC5)ccc(c34)C2=O)nn1`, for which the IC50 in the assay with MGC-803 stood at 1.51 µM; in the assay with SW1990, 2.44 µM; with PC-3 it was 0.5 µM; in the assay with TE-1, 3.05 µM; in the assay on HGC-27, 2.45 µM.

For the origin of these results see ChEMBL document CHEMBL5046249, “Synthesis, biological evaluation and cellular localization study of fluorescent derivatives of Jiyuan Oridonin A” (Eur J Med Chem, 2022).
